Measured values reported in publication PMC11519908, “Luminescent Ln(III)-Metallopeptide Sensors for Monitoring Pseudomonas aeruginosa Elastase B Activity in Complex Biological Media” (ACS Sensors, 2024).

Key:
[1] = tested on: supernatants from P. aeruginosa mutant strains deficient in LasB (LasB1, LasB2); conditions: pH 8
[2] = tested on: supernatants from the LasB-deficient P. aeruginosa mutants; conditions: P1[Tb]: 0.5 mM probe, 50 mM CaCl2, HEPES buffer, 9 µL supernatant, RT, 1 h before injection

Substance: EGLAEW [P1[Tb]]
- change of luminescence over time with LasB-deficient P. aeruginosa supernatants [1]: no changes in the luminescence
- integrity of probe with LasB-deficient P. aeruginosa supernatants (HPLC-MS) [2]: remained intact
